Patent US8192962B2, “Processes for detecting toxic substances” (Daikin Industries, Ltd., priority 2001, dated 2012)

Test system: Energy system protein genes
Test: DNA chip mRNA expression in yeast, energy system protein genes (Table 4)
Format: cell-based, Saccharomyces cerevisiae S288C
Method: Yeast (Saccharomyces cerevisiae S288C (α SUC2mal mel gap2 CUP1)) were incubated at 25° C. on YPD medium (yeast extract 1%, polypepton 2%, glucose 2%). One of toxic chemical substances was added to the cells at logarithmic growth phase, and the cells were further incubated for two hours. Cells were cultured without any chemical substance in the same condition, and were used as control. Concentrations of the chemical substances were defined to inhibit the growth of the yeast but not lead to death.
After completion of the incubation, the culture was centrifuged to collect the cells. To the cells, sodium acetate buffer (50 mM sodium acetate, 10 mM EDTA, 1% SDS) was added, and the mixture was shaken at 65° C. for five minutes, followed by returning to room temperature, and obtaining the supernatant, of which the procedures were repeated two times. To the supernatant, ½ amount of a solution of phenol/chloroform was added, and the mixture was centrifuged to give a supernatant, which was added with an equal amount of chloroform, and the mixture was centrifuged to give a supernatant. To the supernatant, an equal amount of isopropanol containing 0.3 M sodium acetate was added, and the mixture was allowed to stand at room temperature for 30 minutes, after which the mixture was centrifuged to give a sediment of the whole RNAs. Seventy % ethanol was added to the sediment, and the mixture was again centrifuged to give a sediment, which was then dried and dissolved in water. mRNA was isolated from the whole RNAs as followings. In view of the fact that a poly A chain is attached to the 3′ terminus of mRNA, a polynucleotide having a poly T structure which was immobilized on the surface of latex beads was used to trap the mRNA, and then the mRNA was washed and eluted with spine column (Oligotex-dT30<Super>mRNA Purification Kit, Takara). Reverse transcription of the mRNA was conducted with a reverse transcriptase (Super Script II Reverse Transcriptase; catalogue No. 18064-014, GibcoBRL) using fluorescence-labeled nucleotides to give cDNAs that were introduced with Cy3-dUTP or Cy5-dUTP during the reverse transcription.
The labeled cDNAs were dissolved in TE buffer (10mM Tris-HCl/1 mM EDTA, pH8.0), and the solution was dropped on the DNA chip containing the whole genes of yeast (DNA Chip Research Inc. Japan) so that the cDNAs were hybridized on the DNA chip at 65° C. for over 12 hours. The fluoresces intensity of the DNA chip was read with a scanner, and the ratio relative to the fluorescence intensity resulting from the absence of chemical substance was estimated as the following, which is shown in Tables 1 to 9: […]

How did the “The level of expressed mRNA in the presence of chemical substance/The level of expressed mRNA in the absence of chemical substance” value (yeast gene YAL060W) turn out when Na2As [(1)] was run?
Its value is 1.1.

And the “The level of expressed mRNA in the presence of chemical substance/The level of expressed mRNA in the absence of chemical substance” value (yeast gene YBL058W, cells incubated two hours with the chemical substance)?
The value was 0.9.

What about the “The level of expressed mRNA in the presence of chemical substance/The level of expressed mRNA in the absence of chemical substance” value (yeast gene YBL099W, cells incubated two hours with the chemical substance) of the same substance?
The value was 0.8.

And the “The level of expressed mRNA in the presence of chemical substance/The level of expressed mRNA in the absence of chemical substance” value (yeast gene YBR001C, cells incubated two hours with the chemical substance)?
The value was 0.9.

And the “The level of expressed mRNA in the presence of chemical substance/The level of expressed mRNA in the absence of chemical substance” value (yeast gene YBR185C, cells incubated two hours with the chemical substance)?
Its value is 1.5.

And the “The level of expressed mRNA in the presence of chemical substance/The level of expressed mRNA in the absence of chemical substance” value (yeast gene YBR221C, cells incubated two hours with the chemical substance)?
Its value is 0.8.

And the “The level of expressed mRNA in the presence of chemical substance/The level of expressed mRNA in the absence of chemical substance” value (yeast gene YCL040W)?
Its value is 0.9.

What about the “The level of expressed mRNA in the presence of chemical substance/The level of expressed mRNA in the absence of chemical substance” value (yeast gene YCR012W) of the same substance?
The value was 1.2.

And the “The level of expressed mRNA in the presence of chemical substance/The level of expressed mRNA in the absence of chemical substance” value (yeast gene YCR046C, cells incubated two hours with the chemical substance)?
The value was 1.0.

And the “The level of expressed mRNA in the presence of chemical substance/The level of expressed mRNA in the absence of chemical substance” value (yeast gene YCR105W, cells incubated two hours with the chemical substance)?
The value was 2.2.

What about the “The level of expressed mRNA in the presence of chemical substance/The level of expressed mRNA in the absence of chemical substance” value (yeast gene YDL021W) of the same substance?
The value was 5.1.

What about the “The level of expressed mRNA in the presence of chemical substance/The level of expressed mRNA in the absence of chemical substance” value (yeast gene YDL067C, cells incubated two hours with the chemical substance) of the same substance?
The value was 1.8.

What about the “The level of expressed mRNA in the presence of chemical substance/The level of expressed mRNA in the absence of chemical substance” value (yeast gene YDL078C, cells incubated two hours with the chemical substance) of the same substance?
Its value is 0.7.

And the “The level of expressed mRNA in the presence of chemical substance/The level of expressed mRNA in the absence of chemical substance” value (yeast gene YDL107W, cells incubated two hours with the chemical substance)?
The value was 1.3.

And the “The level of expressed mRNA in the presence of chemical substance/The level of expressed mRNA in the absence of chemical substance” value (yeast gene YDL174C)?
The value was 0.9.

And the “The level of expressed mRNA in the presence of chemical substance/The level of expressed mRNA in the absence of chemical substance” value (yeast gene YDL181W, cells incubated two hours with the chemical substance)?
Its value is 1.4.

What about the “The level of expressed mRNA in the presence of chemical substance/The level of expressed mRNA in the absence of chemical substance” value (yeast gene YDR001C) of the same substance?
The value was 1.0.

What about the “The level of expressed mRNA in the presence of chemical substance/The level of expressed mRNA in the absence of chemical substance” value (yeast gene YDR050C, cells incubated two hours with the chemical substance) of the same substance?
Its value is 1.9.

And the “The level of expressed mRNA in the presence of chemical substance/The level of expressed mRNA in the absence of chemical substance” value (yeast gene YDR079W, cells incubated two hours with the chemical substance)?
Its value is 1.3.

And the “The level of expressed mRNA in the presence of chemical substance/The level of expressed mRNA in the absence of chemical substance” value (yeast gene YDR178W, cells incubated two hours with the chemical substance)?
Its value is 2.0.

What about the “The level of expressed mRNA in the presence of chemical substance/The level of expressed mRNA in the absence of chemical substance” value (yeast gene YDR231C) of the same substance?
Its value is 1.1.

What about the “The level of expressed mRNA in the presence of chemical substance/The level of expressed mRNA in the absence of chemical substance” value (yeast gene YDR298C, cells incubated two hours with the chemical substance) of the same substance?
The value was 1.3.

What about the “The level of expressed mRNA in the presence of chemical substance/The level of expressed mRNA in the absence of chemical substance” value (yeast gene YDR377W, cells incubated two hours with the chemical substance) of the same substance?
Its value is 1.3.

And the “The level of expressed mRNA in the presence of chemical substance/The level of expressed mRNA in the absence of chemical substance” value (yeast gene YDR529C, cells incubated two hours with the chemical substance)?
Its value is 1.8.

And the “The level of expressed mRNA in the presence of chemical substance/The level of expressed mRNA in the absence of chemical substance” value (yeast gene YEL024W, cells incubated two hours with the chemical substance)?
Its value is 1.5.

And the “The level of expressed mRNA in the presence of chemical substance/The level of expressed mRNA in the absence of chemical substance” value (yeast gene YEL039C, cells incubated two hours with the chemical substance)?
Its value is 1.1.

What about the “The level of expressed mRNA in the presence of chemical substance/The level of expressed mRNA in the absence of chemical substance” value (yeast gene YER178W) of the same substance?
The value was 0.8.

What about the “The level of expressed mRNA in the presence of chemical substance/The level of expressed mRNA in the absence of chemical substance” value (yeast gene YFL057C) of the same substance?
The value was 20.9.

And the “The level of expressed mRNA in the presence of chemical substance/The level of expressed mRNA in the absence of chemical substance” value (yeast gene YFR053C)?
The value was 1.8.

And the “The level of expressed mRNA in the presence of chemical substance/The level of expressed mRNA in the absence of chemical substance” value (yeast gene YGL018C, cells incubated two hours with the chemical substance)?
Its value is 1.5.

And the “The level of expressed mRNA in the presence of chemical substance/The level of expressed mRNA in the absence of chemical substance” value (yeast gene YGL062W)?
The value was 0.6.

What about the “The level of expressed mRNA in the presence of chemical substance/The level of expressed mRNA in the absence of chemical substance” value (yeast gene YGL187C, cells incubated two hours with the chemical substance) of the same substance?
Its value is 1.5.

What about the “The level of expressed mRNA in the presence of chemical substance/The level of expressed mRNA in the absence of chemical substance” value (yeast gene YGL191W, cells incubated two hours with the chemical substance) of the same substance?
Its value is 2.3.

And the “The level of expressed mRNA in the presence of chemical substance/The level of expressed mRNA in the absence of chemical substance” value (yeast gene YGL205W, cells incubated two hours with the chemical substance)?
Its value is 1.0.

And the “The level of expressed mRNA in the presence of chemical substance/The level of expressed mRNA in the absence of chemical substance” value (yeast gene YGL256W, cells incubated two hours with the chemical substance)?
Its value is 0.9.

What about the “The level of expressed mRNA in the presence of chemical substance/The level of expressed mRNA in the absence of chemical substance” value (yeast gene YGR043C) of the same substance?
The value was 2.6.

What about the “The level of expressed mRNA in the presence of chemical substance/The level of expressed mRNA in the absence of chemical substance” value (yeast gene YGR062C, cells incubated two hours with the chemical substance, 25° C., YPD medium) of the same substance?
The value was 0.9.

What about the “The level of expressed mRNA in the presence of chemical substance/The level of expressed mRNA in the absence of chemical substance” value (yeast gene YGR087C, cells incubated two hours with the chemical substance) of the same substance?
The value was 1.0.

What about the “The level of expressed mRNA in the presence of chemical substance/The level of expressed mRNA in the absence of chemical substance” value (yeast gene YGR174C, cells incubated two hours with the chemical substance) of the same substance?
Its value is 1.1.

What about the “The level of expressed mRNA in the presence of chemical substance/The level of expressed mRNA in the absence of chemical substance” value (yeast gene YGR192C) of the same substance?
The value was 1.4.

And the “The level of expressed mRNA in the presence of chemical substance/The level of expressed mRNA in the absence of chemical substance” value (yeast gene YGR244C)?
The value was 1.0.

And the “The level of expressed mRNA in the presence of chemical substance/The level of expressed mRNA in the absence of chemical substance” value (yeast gene YGR254W)?
The value was 1.2.

And the “The level of expressed mRNA in the presence of chemical substance/The level of expressed mRNA in the absence of chemical substance” value (yeast gene YHR179W)?
The value was 3.3.

What about the “The level of expressed mRNA in the presence of chemical substance/The level of expressed mRNA in the absence of chemical substance” value (yeast gene YIL160C) of the same substance?
Its value is 0.8.

What about the “The level of expressed mRNA in the presence of chemical substance/The level of expressed mRNA in the absence of chemical substance” value (yeast gene YIR031C, cells incubated two hours with the chemical substance) of the same substance?
Its value is 0.9.

What about the “The level of expressed mRNA in the presence of chemical substance/The level of expressed mRNA in the absence of chemical substance” value (yeast gene YJL052W) of the same substance?
Its value is 1.6.

What about the “The level of expressed mRNA in the presence of chemical substance/The level of expressed mRNA in the absence of chemical substance” value (yeast gene YJL121C, cells incubated two hours with the chemical substance) of the same substance?
The value was 1.0.

What about the “The level of expressed mRNA in the presence of chemical substance/The level of expressed mRNA in the absence of chemical substance” value (yeast gene YJL166W, cells incubated two hours with the chemical substance) of the same substance?
The value was 2.1.

And the “The level of expressed mRNA in the presence of chemical substance/The level of expressed mRNA in the absence of chemical substance” value (yeast gene YJL216C, cells incubated two hours with the chemical substance)?
The value was 1.1.

And the “The level of expressed mRNA in the presence of chemical substance/The level of expressed mRNA in the absence of chemical substance” value (yeast gene YJR009C)?
Its value is 1.1.
